Data taken from EPA's CvTdb concentration-time database.

Tests used:
Rat [1] = assay: concentration in brain after dosing; details: dosed: Potassium Perfluorobutane Sulfonate, 20 mg/kg, oral
Rat [2] = assay: concentration in plasma after dosing; details: 0.75 h; dosed: Potassium Perfluorobutane Sulfonate; 4 mg/kg; iv; Female; Harlan Sprague-Dawley
Rat [3] = assay: concentration in kidney after dosing; details: dosed: Potassium Perfluorobutane Sulfonate, 20 mg/kg, oral
Rat [4] = assay: concentration in plasma after dosing; details: dosed: Potassium Perfluorobutane Sulfonate
Rat [5] = assay: concentration in plasma after dosing; details: dosed: Potassium Perfluorobutane Sulfonate, 4 mg/kg, iv, Male, F344
Rat [6] = assay: concentration in liver after dosing; details: dosed: Potassium Perfluorobutane Sulfonate, 20 mg/kg, oral
rat [7] = assay: amount in urine after dosing (umol)
[8] = 0.5 h, Female, Harlan Sprague Dawley
[9] = 0.5 h, Male, Harlan Sprague Dawley
[10] = 0.5 h, Male, Harlan Sprague Dawley - this seems too small
[11] = 1 h, Male, Harlan Sprague Dawley
[12] = 3 h, Male, Harlan Sprague Dawley
[13] = 6 h, Male, Harlan Sprague Dawley
[14] = 1 h, Female, Harlan Sprague Dawley
[15] = 3 h, Female, Harlan Sprague Dawley
[16] = 6 h, Female, Harlan Sprague Dawley
[17] = 12 h, Male, Harlan Sprague Dawley

## O=S(=O)([O-])C(F)(F)C(F)(F)C(F)(F)C(F)(F)F.[K+] [Potassium Perfluorobutane Sulfonate]
Rat [1]; [8]
  concentration in brain: 538 ng/g
Rat [1]; [9]
  concentration in brain: 590 ng/g
Rat [1]; [10]
  concentration in brain: 725 ng/g
Rat [1]; [11]
  concentration in brain: 1120 ng/g
Rat [1]; [12]
  concentration in brain: 769 ng/g
Rat [1]; [13]
  concentration in brain: 562 ng/g
Rat [2]
  concentration in plasma: 2.53 µg/mL
Rat [3]; [8]
  concentration in kidney: 30100 ng/g
Rat [3]; [9]
  concentration in kidney: 19000 ng/g
Rat [3]; [10]
  concentration in kidney: 19900 ng/g
Rat [3]; [14]
  concentration in kidney: 17600 ng/g
Rat [3]; [11]
  concentration in kidney: 14900 ng/g
Rat [3]; [15]
  concentration in kidney: 10900 ng/g
Rat [3]; [12]
  concentration in kidney: 19700 ng/g
Rat [3]; [16]
  concentration in kidney: 1290 ng/g
Rat [3]; [13]
  concentration in kidney: 15200 ng/g
Rat [3]; [17]
  concentration in kidney: 1960 ng/g
Rat [4]; 5 min, 4 mg/kg, iv, Male, F344
  concentration in plasma: 33.3 µg/mL
Rat [4]; 5 min, 4 mg/kg, oral, Male, Harlan Sprague Dawley
  concentration in plasma: 0.537 µg/mL
Rat [4]; 5 min, 20 mg/kg, oral, Male, Harlan Sprague Dawley
  concentration in plasma: 0.653 µg/mL
Rat [4]; 0.25 h, 4 mg/kg, iv, Male, F344
  concentration in plasma: 28 µg/mL
Rat [4]; 0.25 h, 4 mg/kg, oral, Male, Harlan Sprague Dawley
  concentration in plasma: 4.69 µg/mL
Rat [4]; 0.25 h, 20 mg/kg, oral, Male, Harlan Sprague Dawley
  concentration in plasma: 28.7 µg/mL
Rat [4]; 0.5 h, 4 mg/kg, iv, Female, Harlan Sprague-Dawley
  concentration in plasma: 11.1 µg/mL
Rat [4]; 0.5 h, 4 mg/kg, iv, Male, F344
  concentration in plasma: 23.8 µg/mL
Rat [4]; 0.5 h, 4 mg/kg, oral, Male, Harlan Sprague Dawley
  concentration in plasma: 9.17 µg/mL
Rat [4]; 0.75 h, 4 mg/kg, iv, Female, Harlan Sprague-Dawley
  concentration in plasma: 7.79 µg/mL
Rat [4]; 0.75 h, 4 mg/kg, iv, Male, F344
  concentration in plasma: 23.8 µg/mL
Rat [4]; 0.75 h, 4 mg/kg, oral, Male, Harlan Sprague Dawley
  concentration in plasma: 9.06 µg/mL
Rat [4]; 0.75 h, 20 mg/kg, oral, Male, Harlan Sprague Dawley
  concentration in plasma: 49.6 µg/mL
Rat [4]; 1 h, 4 mg/kg, iv, Female, Harlan Sprague-Dawley
  concentration in plasma: 4.09 µg/mL
Rat [4]; 1 h, 4 mg/kg, iv, Male, F344
  concentration in plasma: 22 µg/mL
Rat [4]; 1 h, 4 mg/kg, oral, Male, Harlan Sprague Dawley
  concentration in plasma: 12.9 µg/mL
Rat [4]; 1.5 h, 4 mg/kg, iv, Male, F344
  concentration in plasma: 18.5 µg/mL
Rat [4]; 1.5 h, 4 mg/kg, oral, Male, Harlan Sprague Dawley
  concentration in plasma: 12.1 µg/mL
Rat [4]; 1.5 h, 20 mg/kg, oral, Male, Harlan Sprague Dawley
  concentration in plasma: 63.6 µg/mL
Rat [4]; 3 h, 4 mg/kg, iv, Male, F344
  concentration in plasma: 10.5 µg/mL
Rat [4]; 3 h, 4 mg/kg, oral, Male, Harlan Sprague Dawley
  concentration in plasma: 15.3 µg/mL
Rat [4]; 6 h, 4 mg/kg, iv, Male, F344
  concentration in plasma: 6.69 µg/mL
Rat [4]; 6 h, 4 mg/kg, oral, Male, Harlan Sprague Dawley
  concentration in plasma: 12.5 µg/mL
Rat [4]; 9 h, 4 mg/kg, oral, Male, Harlan Sprague Dawley
  concentration in plasma: 8.1 µg/mL
Rat [4]; 9 h, 20 mg/kg, oral, Male, Harlan Sprague Dawley
  concentration in plasma: 15.1 µg/mL
Rat [4]; 12 h, 4 mg/kg, iv, Male, F344
  concentration in plasma: 1.6 µg/mL
Rat [4]; 12 h, 4 mg/kg, oral, Male, Harlan Sprague Dawley
  concentration in plasma: 9.16 µg/mL
Rat [4]; 24 h, 4 mg/kg, iv, Male, F344
  concentration in plasma: 0.232 µg/mL
Rat [4]; 24 h, 4 mg/kg, oral, Male, Harlan Sprague Dawley
  concentration in plasma: 0.0471 µg/mL
Rat [4]; 24 h, 20 mg/kg, oral, Male, Harlan Sprague Dawley
  concentration in plasma: 0.364 µg/mL
Rat [4]; 48 h, 20 mg/kg, oral, Male, Harlan Sprague Dawley
  concentration in plasma: 0.0426 µg/mL
Rat [5]; 0.5 h
  concentration in plasma: 19.1 µg/mL
Rat [5]; 12 h
  concentration in plasma: 1.62 µg/mL
Rat [6]; [8]
  concentration in liver: 29500 ng/g
Rat [6]; [9]
  concentration in liver: 61000 ng/g
Rat [6]; [10]
  concentration in liver: 95200 ng/g
Rat [6]; [14]
  concentration in liver: 42000 ng/g
Rat [6]; [11]
  concentration in liver: 75600 ng/g
Rat [6]; [15]
  concentration in liver: 5790 ng/g
Rat [6]; [12]
  concentration in liver: 87000 ng/g
Rat [6]; [16]
  concentration in liver: 910 ng/g
Rat [6]; [13]
  concentration in liver: 51600 ng/g
Rat [6]; [17]
  concentration in liver: 7420 ng/g

## CO [methanol]
Rat [7]; 0.9577 h, dosed: methanol, 100 mg/kg, iv, male, CDF(F344)/CrlBR
  amount in urine: 2.05
Rat [7]; 2.957 h, dosed: methanol, 100 mg/kg, iv, male, CDF(F344)/CrlBR
  amount in urine: 4.06
Rat [7]; 5.924 h, dosed: methanol, 100 mg/kg, iv, male, CDF(F344)/CrlBR
  amount in urine: 5.16
Rat [7]; 9.972 h, dosed: methanol, 100 mg/kg, iv, male, CDF(F344)/CrlBR
  amount in urine: 5.6
Rat [7]; 11.92 h, dosed: methanol, 100 mg/kg, iv, male, CDF(F344)/CrlBR
  amount in urine: 5.58
Rat [7]; 14.94 h, dosed: methanol, 100 mg/kg, iv, male, CDF(F344)/CrlBR
  amount in urine: 5.56

## CC(C)(C)O [tert-butyl alcohol]
Rat [7]; 5.904 h, dosed: methyl tert-butyl ether, 38.7 ppm, inhalation, duration: 4 hr, F344 (Harlan Winkelmann)
  amount in urine: 0.773
Rat [7]; 5.97 h, dosed: ethyl tert-butyl ether, 40.6 ppm, inhalation, duration: 4 hr, F344 (Harlan Winkelmann)
  amount in urine: 0.601
Rat [7]; 11.88 h, dosed: methyl tert-butyl ether, 38.7 ppm, inhalation, duration: 4 hr, F344 (Harlan Winkelmann)
  amount in urine: 0.347
Rat [7]; 11.92 h, dosed: ethyl tert-butyl ether, 40.6 ppm, inhalation, duration: 4 hr, F344 (Harlan Winkelmann)
  amount in urine: 0.254
Rat [7]; 11.96 h, dosed: methyl tert-butyl ether, 4.5 ppm, inhalation, duration: 4 hr, F344 (Harlan Winkelmann)
  amount in urine: 0.24
Rat [7]; 17.95 h, dosed: methyl tert-butyl ether, 4.5 ppm, inhalation, duration: 4 hr, F344 (Harlan Winkelmann)
  amount in urine: 0.076
Rat [7]; 17.97 h, dosed: methyl tert-butyl ether, 38.7 ppm, inhalation, duration: 4 hr, F344 (Harlan Winkelmann)
  amount in urine: 0.126
Rat [7]; 17.99 h, dosed: ethyl tert-butyl ether, 40.6 ppm, inhalation, duration: 4 hr, F344 (Harlan Winkelmann)
  amount in urine: 0.187
Rat [7]; 23.91 h, dosed: methyl tert-butyl ether, 4.5 ppm, inhalation, duration: 4 hr, F344 (Harlan Winkelmann)
  amount in urine: 0.0671
Rat [7]; 23.93 h, dosed: methyl tert-butyl ether, 38.7 ppm, inhalation, duration: 4 hr, F344 (Harlan Winkelmann)
  amount in urine: 0.0789
Rat [7]; 23.94 h, dosed: ethyl tert-butyl ether, 40.6 ppm, inhalation, duration: 4 hr, F344 (Harlan Winkelmann)
  amount in urine: 0.0668
Rat [7]; 29.91 h, dosed: methyl tert-butyl ether, 38.7 ppm, inhalation, duration: 4 hr, F344 (Harlan Winkelmann)
  amount in urine: 0.0315
Rat [7]; 29.93 h, dosed: ethyl tert-butyl ether, 40.6 ppm, inhalation, duration: 4 hr, F344 (Harlan Winkelmann)
  amount in urine: 0.0668
Rat [7]; 29.96 h, dosed: methyl tert-butyl ether, 4.5 ppm, inhalation, duration: 4 hr, F344 (Harlan Winkelmann)
  amount in urine: 0.083
